Target: CDK2 (UniProt P24941)
Experiment: Enzyme Assay
Conditions: concentration not given here

Compound | inhibition [%]
Cc1cc(C)cc(CC(=O)Nc2sc(Cc3ccccc3)cc2C(N)=O)c1 | 100
Cc1sc(NC(=O)C2(c3ccccc3)CCCC2)c(C(N)=O)c1C | 100
Cc1ccc(C(=O)Nc2sc3c(c2C(N)=O)CCCC3)cc1 | 100
COc1ccc(Cl)cc1C(=O)Nc1sc(C)c(C)c1C(N)=O | 100
CC(=O)Nc1sc2c(c1C(N)=O)CCCC2 | 100
CN1CCc2c(sc(NC(=O)c3cc4c(Cl)cc(Cl)cc4[nH]3)c2C(N)=O)C1 | 100
COc1ccccc1OCC(=O)Nc1sc(C)c(C)c1C(N)=O | 100
NC(=O)c1c(NC(=O)c2cccc(O)c2)sc2c1CCCC2 | 100
Cc1cc(C(=O)Nc2sc(Cc3ccccc3)cc2C(N)=O)cc(C)c1O | 100
Cc1sc(NC(=O)c2ccccc2-n2cccc2)c(C(N)=O)c1C | 100
NC(=O)c1c(NC(=O)c2ccccc2O)sc2c1CCCC2 | 100
COc1ccc(/C=C\C(=O)Nc2scc(C)c2C(N)=O)c(OC)c1 | 100
CC(C)c1cc(C(N)=O)c(NC(=O)c2ccc(F)cc2)s1 | 100
CN1CCc2c(sc(NC(=O)c3cc4cc(Cl)ccc4[nH]3)c2C(N)=O)C1 | 100
NC(=O)c1cc(Cc2ccccc2)sc1NC(=O)/C=C/c1ccccc1O | 100
NC(=O)c1cc(-c2ccccc2)sc1NC(=O)/C=C/c1cccs1 | 100
CC(C)c1cc(C(N)=O)c(NC(=O)/C=C\c2ccccc2)s1 | 100
NC(=O)c1c(NC(=O)C2CC2)sc2c1CCCC2 | 100
Cc1cc(C(=O)Nc2sc3c(c2C(N)=O)CCCC3)no1 | 100
CCN(CC)CCC(=O)Nc1sc(C)c(C)c1C(N)=O | 100
NC(=O)c1c(NC(=O)c2cnccn2)sc2c1CCCC2 | 100

Compound | inhibition [%]
Cc1sc(NC(=O)Cc2c[nH]c3ccccc23)c(C(N)=O)c1C | 100
NC(=O)c1cc(Cc2ccccc2)sc1NC(=O)/C=C\c1ccc(O)cc1 | 100
COc1ccc(C(=O)Nc2sc(C)c(C)c2C(N)=O)cc1Cl | 100
CC(c1ccccc1)c1cc(C(N)=O)c(NC(=O)c2cccc(Cl)c2O)s1 (stereo unspecified) | 100
NC(=O)c1cc(Cc2ccccc2)sc1NC(=O)c1c[nH]c2ccccc12 | 100
NC(=O)c1cc(Cc2ccccc2)sc1NC(=O)c1ccc2c(c1)OCO2 | 100
NC(=O)c1cc(-c2ccccc2)sc1NC(=O)COc1ccccc1 | 100
CC(=O)Nc1ccc(Br)c(C(=O)Nc2sc3c(c2C(N)=O)CCN(C)C3)c1 | 100
CC(c1ccccc1)c1cc(C(N)=O)c(NC(=O)CNC(=O)c2ccccc2)s1 (stereo unspecified) | 100
Cc1ccc(O)c(C(=O)Nc2sc(-c3ccccc3)cc2C(N)=O)c1 | 100
Cc1csc(NC(=O)Cc2c[nH]c3ccc(O)cc23)c1C(N)=O | 100
Cn1cccc1C(=O)Nc1sc2c(c1C(N)=O)CCCC2 | 100
NC(=O)c1cc(Cc2ccccc2)sc1NC(=O)COCc1ccccc1 | 100
COc1cc(C(=O)Nc2sc3c(c2C(N)=O)CCN(C)C3)cc(OC)c1OC | 100
NC(=O)c1cc(Cc2ccccc2)sc1NC(=O)c1cc2ccccc2[nH]1 | 100
Cc1sc(NC(=O)c2ccc(OC(C)C)cc2)c(C(N)=O)c1C | 100
CC(=O)N[C@@H](CC(N)=O)C(=O)Nc1sc(C(C)c2ccccc2)cc1C(N)=O (stereo partly specified) | 100
Cc1ccc(S(=O)(=O)NCC(=O)Nc2sc3c(c2C(N)=O)CCN(C)C3)cc1 | 100
NC(=O)c1cc(-c2ccccc2)sc1NC(=O)c1cc2ccccc2o1 | 100
CC(=O)Nc1ccc(C(=O)Nc2sc(C(C)c3ccccc3)cc2C(N)=O)cc1 (stereo unspecified) | 100
Cc1cnc(C(=O)Nc2sc(C(C)C)cc2C(N)=O)cn1 | 100

Further lines, results first:

inhibition [%] | Compound
100 | CN1CCc2c(sc(NC(=O)Cc3c[nH]c4ccc(F)cc34)c2C(N)=O)C1
100 | CC(C)c1cc(C(N)=O)c(NC(=O)C2CC3C=CC2C3)s1 (stereo unspecified)
100 | CN(C)CCCC(=O)Nc1sc(Cc2ccccc2)cc1C(N)=O
100 | CC(=O)c1ccccc1C(=O)Nc1sc(-c2ccccc2)cc1C(N)=O
100 | CC(C)=NOC(C)C(=O)Nc1sc(C(C)C)cc1C(N)=O (stereo unspecified)
100 | NC(=O)c1cc(-c2ccccc2)sc1NC(=O)Cc1ccc(F)cc1
100 | CCC(NC(=O)CCl)C(=O)Nc1sc(C)c(C)c1C(N)=O (stereo unspecified)
100 | CC(c1ccccc1)c1cc(C(N)=O)c(NC(=O)c2ccc(Cl)cc2O)s1 (stereo unspecified)
100 | Cc1csc(NC(=O)C2=COc3ccc(Cl)cc3C2)c1C(N)=O
100 | COc1ccc(/C=C\C(=O)Nc2sc(C(C)c3ccccc3)cc2C(N)=O)cc1 (stereo unspecified)
100 | COc1ccc(CC(=O)Nc2scc(C)c2C(N)=O)c(OC)c1
100 | CC(=O)N(CC(N)=O)c1sc2c(c1C(N)=O)CCCC2
100 | COc1cccc(C(=O)Nc2sc(Cc3ccccc3)cc2C(N)=O)c1O
100 | CCCN(CCC)C(=O)[C@H](C)Nc1sc(C(C)c2ccccc2)cc1C(N)=O (stereo partly specified)
100 | COc1ccc(OC)c(/C=C\C(=O)Nc2scc(C)c2C(N)=O)c1
100 | CC1NC(=O)NC1CCCCCC(=O)Nc1sc2c(c1C(N)=O)CCN(C)C2 (stereo unspecified)
100 | COc1cc(CC(=O)Nc2scc(C)c2C(N)=O)cc(OC)c1
100 | CC(c1ccccc1)c1cc(C(N)=O)c(NC(=O)C2CC(=O)c3ccccc32)s1 (stereo unspecified)
100 | CC(c1ccccc1)c1cc(C(N)=O)c(NC(=O)C2=CN(C)CCC2)s1 (stereo unspecified)
100 | CC(NC(=O)C(C)Nc1sc(-c2ccccc2)cc1C(N)=O)C(=O)O (stereo unspecified)

inhibition [%] | Compound
100 | COc1ccc(C(=O)Nc2sc(-c3ccccc3)cc2C(N)=O)cc1
100 | CC(=O)N(C#N)c1sc2c(c1C(N)=O)CCCC2
100 | Cc1sc(NC(=O)/C=C\c2ccc3c(c2)OCO3)c(C(N)=O)c1C
100 | NC(=O)c1cc(-c2ccccc2)sc1NC(=O)c1ccc(Cl)nc1
100 | CC(C)C(C(=O)O)N(C(N)=O)c1sc(Cc2ccccc2)cc1C(N)=O (stereo unspecified)
100 | Cc1cccc(C(=O)Nc2sc3c(c2C(N)=O)CCCC3)c1
100 | COc1cc(OC)c(C(=O)Nc2sc3c(c2C(N)=O)CCN(C)C3)c(OC)c1
100 | CN1CCc2c(sc(NC(=O)Cc3c[nH]c4cccc(Cl)c34)c2C(N)=O)C1
100 | Cc1sc(NC(=O)c2cc(Cl)ccc2Cl)c(C(N)=O)c1C
100 | Cc1sc(NC(=O)c2nc3ccccc3nc2O)c(C(N)=O)c1C
100 | CN1CCc2c(sc(NC(=O)CCc3nc4c([nH]3)c(=O)n(C)c(=O)n4C)c2C(N)=O)C1
100 | CC(c1ccccc1)c1cc(C(N)=O)c(NC(=O)CCC(=O)c2ccccc2)s1 (stereo unspecified)
100 | CN1CCc2c(sc(NC(=O)Cc3ccc(S(C)(=O)=O)cc3)c2C(N)=O)C1
100 | COc1ccc(C(=O)Nc2sc(C)c(C)c2C(N)=O)cc1OC
100 | Cc1csc(CC(=O)c2c(-c3ccccc3)noc2C)c1C(N)=O
100 | CN1CCc2c(sc(NC(=O)/C=C\C(=O)Nc3ccc(Cl)cc3)c2C(N)=O)C1
100 | NC(=O)CN(C(=O)c1ccco1)c1sc(Cc2ccccc2)cc1C(N)=O
100 | CC(c1ccccc1)c1cc(C(N)=O)c(NC(=O)c2ccc3ccccc3n2)s1 (stereo unspecified)
100 | CN1CCc2c(sc(NC(=O)CCS(=O)(=O)c3ccccc3)c2C(N)=O)C1
100 | Cc1sc(NC(=O)/C=C/CNC2=CCC(=O)C=C2)c(C(N)=O)c1C

inhibition [%] | Compound
100 | CCCN(C(=O)/C=C\C(N)=O)c1sc(-c2ccccc2)cc1C(N)=O
100 | Cc1ccccc1CC(=O)Nc1sc(C(C)C)cc1C(N)=O
100 | CC(C)c1cc(C(N)=O)c(NC(=O)Cc2cccs2)s1
100 | Cc1sc(NC(=O)/C=C\c2ccc(N(C)C)cc2)c(C(N)=O)c1C
100 | Cc1cccc(C)c1C(=O)Nc1sc(C(C)C)cc1C(N)=O
100 | Cc1nocc1C(=O)Nc1sc2c(c1C(N)=O)CCCC2
100 | Cc1csc(NC(=O)Cc2c(C)[nH]c3ccccc23)c1C(N)=O
100 | NC(=O)c1cc(-c2ccccc2)sc1NC(=O)c1ccc2cc[nH]c2c1
100 | CC1(C)CC(=O)C=C(C(=O)Nc2sc(Cc3ccccc3)cc2C(N)=O)O1
100 | Cc1cccc(C(=O)Nc2sc(C(C)C)cc2C(N)=O)c1C
100 | NC(=O)c1cc(-c2ccccc2)sc1NC(=O)Cc1ccc(O)cc1
100 | Cc1sc(NC(=O)Cc2cn(C)c3ccccc23)c(C(N)=O)c1C
100 | Cc1ccoc1C(=O)Nc1sc2c(c1C(N)=O)CCCC2
100 | Cc1sc(NC(=O)c2cccc(Cl)c2Cl)c(C(N)=O)c1C
100 | NC(=O)c1c(NC(=O)c2cc[nH]c2)sc2c1CCCC2
100 | NC(=O)c1cc(Cc2ccccc2)sc1-n1cnc2ncnc(C(=O)O)c21
100 | Cc1csc(NC(=O)Cc2csc3ccccc23)c1C(N)=O
100 | CC(C)c1cc(C(N)=O)c(NC(=O)C2CNC(=O)N2)s1 (stereo unspecified)
100 | NC(=O)c1cc(-c2ccccc2)sc1NC(=O)c1ccccc1Cl
